How the values were obtained:
[1] = system: human foreskin fibroblasts; test: Episomal reprogramming of human foreskin fibroblasts with chemical compounds on MEF feeders, alkaline phosphatase positive iPS cell colonies (Example 1); type: cell-based; details: for effect on episomal reprogramming when added to PD0325901, CHIR99021 and A-83-01: in combination with PD0325901 (0.5 μM), CHIR99021 (3 μM), A-83-01 (0.5 μM)
Excerpt: FIGS. 1A-1C. Improving episomal reprogramming of human foreskin fibroblasts with small chemical compounds. FIG. 1A. Episomal reprogramming vectors. pEF: the eukaryotic elongation factor 1α promoter; pCMV: the cytomegalovirus immediate-early promoter. Transgenes and other features of vectors are indicated by different colors as shown. FIG. 1B. Effects of different combinations of chemical compounds on episomal reprogramming efficiency. FF medium: human foreskin fibroblast culture medium; CM: human ES cell culture medium previously conditioned with irradiated mouse embryonic fibroblast feeder cells. bFGF was used at 100 ng/ml final concentration. B: BIX01294 (1 μM); P: PD0325901 (0.5 μM); C: CHIR99021 (3 μM); A: A-83-01 (0.5 μM). Total: total # of alkaline phosphatase positive iPS cell colonies; Large: # of large-size good undifferentiated alkaline phosphatase positive iPS cell colonies. FIG. 1C. Images of a good iPS cell colony obtained by episomal reprogramming in the presence of chemical compounds. Left: bright-field; right: alkaline phosphatase staining.
FIGS. 2A-2B. Improving episomal reprogramming of human foreskin fibroblasts with small chemical compounds. FIG. 2A. Effects of bFGF and different combinations of chemical compounds on episomal reprogramming efficiency. FF medium: human foreskin fibroblast culture medium; CM: human ES cell culture medium previously conditioned with irradiated mouse embryonic fibroblast feeder cells. bFGF was used at 100 ng/ml final concentration. H: HA-100 (10 μM); B: BIX01294 (1 μM); P: PD0325901 (0.5 μM); C: CHIR99021 (3 μM); A: A-83-01 (0.5 μM); L: hLIF (10 ng/ml). Total: total # of alkaline phosphatase positive iPS cell colonies; Large: # of large-size good undifferentiated alkaline phosphatase positive iPS cell colonies. FIG. 2B. Timing of chemical compound treatment on episomal reprogramming efficiency. CM supplemented with bFGF (100 ng/ml) and HA-100 (10 μM) was used in reprogramming culture.
FIGS. 4A-4B. Episomal reprogramming in defined medium supplemented with chemical compounds. FIG. 4A. Effect of different culture medium on episomal reprogramming in the presence of PD0325901 (0.5 μM), CHIR99021 (3 μM), A-83-01 (0.5 μM) and hLIF (10 ng/ml). FF medium: human foreskin fibroblast culture medium; CM: human ES cell culture medium previously conditioned with irradiated mouse embryonic fibroblast feeder cells. bFGF was used at 100 ng/ml final concentration. H: HA-100 (10 μM); B: BIX01294 (1 μM); P: PD0325901 (0.5 μM); C: CHIR99021 (3 μM); A: A-83-01 (0.5 μM); L: hLIF (10 ng/ml). Total: total # of alkaline phosphatase positive iPS cell colonies; Large: # of large-size good undifferentiated alkaline phosphatase positive iPS cell colonies. FIG. 4B. Sketch of the three-step reprogramming process for the derivation of normal human ES cell-like iPS cells and piPS cells.
For episomal reprogramming of human somatic cells, human foreskin fibroblasts, episomal vectors (FIG. 1A, 7.3 μg of pEP4EO2SCK2MEN2L and 3.2 μg of pEP4EO2SET2K) (Yu et al., 2009) were cotransfected into 1×10^6 cells via nucleofection (NHDF-VPD-1001 with program U-20, Amaxa, Walkersville, Md.). Transfected foreskin fibroblasts from each nucleofection were directly plated to 3×10-cm MEF-seeded dishes in fibroblast culture medium. For adult skin fibroblasts, 7.3 μg of pEP4EO2SCK2MEN2L and 6.4 μg of pEP4EO2SET2K were cotransfected into 1×10^6 cells via nucleofection (NHDF-VPD-1001 with program U-20, Amaxa). Transfected adult skin fibroblasts from each nucleofection were directly plated to 1×10-cm MEF-seeded dish in fibroblast culture medium due to lower cell survival. […]

[2] = system: human foreskin fibroblasts; test: Episomal reprogramming of human foreskin fibroblasts with small molecules on MEF feeder cells, alkaline phosphatase positive colonies (Example 2); type: cell-based
Description: FIGS. 5A-5C. Improving episomal reprogramming efficiency with small molecules. FIG. 5A. Effects of PD0325901 (P, 0.5 μM), CHIR99021(C, 3 μM), A-83-01(A, 0.5 μM), hLIF (L, 1000 U/ml) and HA-100 (H, 10 μM) on episomal reprogramming. FIG. 5B Temporal requirement of small molecule treatment for improved episomal reprogramming. Transfected human foreskin fibroblasts were plated to MEF feeder cells. MEF-conditioned human ESC medium supplemented with 100 ng/ml bFGF (CM100) and small molecules was used to support reprogramming. Alkaline phosphatase positive iPSC colonies were counted on day 22-23 post-transfection. The number of iPSC colonies was from ˜0.33×10^6 input cells. Data shown are mean±standard error (s.e.m.) (n=3). FIG. 5C. Differentiation of the newly derived iPSCs (p3) in the presence of small molecules. […] The addition of bFGF in the culture medium had no effect. Black arrow: undifferentiated iPSC colonies; white arrows: differentiated colonies. Scale bars: 100 μm.
FIGS. 6A-6D. Developing feeder-free conditions for episomal reprogramming. FIG. 6A. Effects of MEF feeder cells, Matrigel™ and culture media on episomal reprogramming. Transfected human foreskin fibroblasts (p6) were plated to MEF feeder cell-seeded or Matrigel™-coated 10-cm dishes, and subjected to different reprogramming culture conditions. Alkaline phosphatase positive (AP^+) colonies were counted on day 18-21 post-transfection. The number of AP+ colonies was from ˜0.33×10^6 input cells. Data shown are mean±s.e.m. (n=3). N2B27: DMEM/F12 medium supplemented with N-2 and B-27; N2B27-100: N2B27 medium supplemented with 100 ng/ml bFGF. *marks piPSCs. FIG. 6B. Bright-field images of a piPSC colony from test 2 and a human ESC-like iPSC colony from test 1, 3 and 4. Scale bars: 100 μm. FIG. 6C. Quantitative RT-PCR analysis of OCT4 and NANOG expression in piPSC clone 1 to 4 (p3). Total: both endogenous and transgene expression. Human H1 ESCs (H1ESC, p32) were used as a control. Data shown are mean±s.e.m. (n=3). FIG. 6D. Temporal requirement of small molecule treatment for feeder-free episomal reprogramming using defined culture media. Transfected human foreskin fibroblasts (p7) were plated to Matrigel™-coated 10-cm dishes. N2B27-100 medium supplemented with PCALH was used to support reprogramming for different time windows (stage 2) followed by mTeSR1 for expansion. Alkaline phosphatase positive iPSC colonies were counted on day 22 post-transfection. The number of iPSC colonies was from ˜0.33×10^6 input cells. Data shown are mean±s.e.m. (n=3).
Episomal reprogramming vectors containing expression cassettes for human OCT4, SOX2, NANOG, LIN28, c-MYC, KLF4 and SV40LT transgenes were as previously described (Yu et al., 2009). Specifically, vector pEP4EO2SCK2MEN2L and pEP4EO2SET2K (combination 4) were used for reprogramming optimization. About 7.3 μg of vector pEP4EO2SCK2MEN2L and 3.2 μg of pEP4EO2SET2K were co-transfected into human neonatal foreskin fibroblasts via nucleofection (NHDF-VPD-1001 with U-20 program, Amaxa, Walkersville, Md.). Transfected fibroblasts (˜1.0×10^6 cells per nucleofection) were plated directly to 3×10-cm MEF-seeded dishes or 3×10-cm Matrigel™-coated dishes in fibroblast culture medium. The next day after transfection, fibroblast medium was replaced with MEF-conditioned human ESC medium supplemented with 100 ng/ml zbFGF (CM100), or chemically defined N2B27 medium (N2B27), or N2B27 medium supplemented with 100 ng/ml zbFGF (N2B27-100), or mTeSR1. The N2B27 medium consists of DMEM/F12 culture medium supplemented with N-2 supplement (1×, Invitrogen), B-27 supplement (1×, Invitrogen), 0.1 mM non-essential amino acids, 1 mM GlutaMAX, and 0.1 mM β-mercaptoethanol. Where applied, small molecules PD0325901 (P, 0.5 μM), CHIR99021(C, 3 μM), A-83-01(A, 0.5 μM) (all from Stemgent, San Diego, Calif.), hLIF (L, 1000 U/ml, Millipore, Billerica, Mass.) and HA-100 (H, 10 μM) were added to reprogramming culture. Culture medium was refreshed every two days. […]

[3] = LIF added to PD0325901, CHIR99021 and A-83-01

In the case of `COc1cc2nc(N3CCCN(C)CC3)nc(NC3CCN(Cc4ccccc4)CC3)c2cc1OC` [BIX01294], the “effect on reprogramming by episomal vectors, compound on its own” value ([1]; BIX01294 1 μM) is reported as “could improve reprogramming” and the “effect on episomal reprogramming when added to PD0325901, CHIR99021 and A-83-01” value [1] is reported as “no or only slight benefit”.

`Cc1cccc(-c2nn(C(=S)Nc3ccccc3)cc2-c2ccnc3ccccc23)n1` [A-83-01, 3-(6-Methyl-2-pyridinyl)-N-phenyl-4-(4-quinolinyl)-1H-pyrazole-1-carbothioamide] was tested, and the “effect on episomal reprogramming, alone / on its own” value ([2]; CM100, MEF feeder cells) was “minimal effect” and the “effect on episomal reprogramming, together with the MEK inhibitor PD0325901” value ([2]; CM100, MEF feeder cells) was “minimal effect”.

hLIF: human leukemia inhibitory factor was tested, and the “effect of hLIF on episomal reprogramming efficiency” value ([2]; hLIF 1000 U/ml) was “did not significantly improve”, the “proliferation of reprogramming intermediates” value ([2]; hLIF 1000 U/ml) was “increased” and the “first appearance of iPS cells, day post transfection” value [1, 3] was about 14 days. For the same compound, the “first appearance of iPS cells, earlier by” value [1, 3] was 3 to 4 days, the “large iPS cell colonies” value [1, 3] was “more large iPS cell colonies” and the “effect on episomal reprogramming when added to PD0325901, CHIR99021 and A-83-01” value [1] was “further facilitated”.

With `Cc1cncc2cccc(S(=O)(=O)N3CCCNC[C@@H]3C)c12` [H-1152] the “replacement of HA-100 in episomal reprogramming” value [2] was “could not be replaced”.

`Cc1ccc2c(c1)C(=O)C1(O)CCN(c3ccccc3)C1=N2` (centres unmarked) [blebbistatin] was tested, and the “replacement of HA-100 in episomal reprogramming” value [2] was “could not be replaced”.

In the case of `O=S(=O)(c1cccc2cnccc12)N1CCNCC1` [HA-100], the “effect on episomal reprogramming, alone / on its own” value ([2]; CM100, MEF feeder cells) is reported as “minimal effect” and the “episomal reprogramming efficiency in the presence of PD0325901, CHIR99021, A-83-01 and hLIF” value ([2]; HA-100 10 μM) is reported as “further increased”.

Reference: patent publication US9295697B2, “Episomal reprogramming with chemicals” (Cellular Dynamics International, Inc., priority 2009, dated 2016)
